Test results from ChEMBL document CHEMBL5230160, “Chemotherapeutics for Toxoplasma gondii: Molecular Biotargets, Binding Modes, and Structure-Activity Relationship Investigations” (J Med Chem, 2021).
In brackets after ≈: the same amount, converted by molar mass.

Assays:
Toxoplasma gondii [1] = test: Antiparasitic activity against Toxoplasma gondii tachyzoites infected in human HeLa cells measured after 24 hrs by MTT assay; type: functional, organism-based
HeLa = test: Cytotoxicity against human HeLa cells assessed as cell growth inhibition measured after 24 hrs by MTT assay; type: functional, cell-based
[2] = Selectivity index, ratio of IC50 for cytotoxicity against human HeLa cells to IC50 for antiparasitic activity against Toxoplasma gondii tachyzoites infected in human HeLa cells; type: toxicity, cell-based; settings: for selectivity ratio: read-out: Ratio IC50
Toxoplasma gondii [3] = test: Antiparasitic activity against Toxoplasma gondii tachyzoites; type: functional, organism-based; settings: Toxoplasma gondii; for EC50: read-out: ED50 (the source's name); for IC50: read-out: IC50
Vero = test: Cytotoxicity against African green monkey Vero cells assessed as cell growth inhibition by alamar blue assay; type: functional; settings: Chlorocebus sabaeus, read-out: ED50 (the source's name)
[4] = Inhibition of Toxoplasma gondii FPPS incubated for 30 mins by scintillation counting analysis
[5] = Inhibition of Toxoplasma gondii recombinant ENR in presence of NADH by absorbance based analysis
Toxoplasma gondii [6] = test: Antiparasitic activity against Toxoplasma gondii infected in HFF cells by fluorescence based analysis; type: functional, organism-based
Toxoplasma gondii [7] = test: Antiparasitic activity against Toxoplasma gondii tachyzoites infected in mouse assessed as survival at 10 mg/kg relative to control; type: functional
[8] = Inhibition of Toxoplasma gondii DHFR
[9] = Inhibition of Toxoplasma gondii recombinant PNP
Toxoplasma gondii [10] = test: Antiparasitic activity against Toxoplasma gondii infected in HFF cells assessed as parasitic growth inhibition incubated for 24 hrs by MTS/PMS assay; type: functional, organism-based

C[C@H]1[C@H](C)CC[C@]2(C(=O)O)CC[C@]3(C)C(=CC[C@@H]4[C@@]5(C)C/C(=C/c6cn(-c7ccccc7Br)nn6)C(=O)C(C)(C)[C@H]5CC[C@]43C)[C@H]12
IC50 (Toxoplasma gondii [1]; Toxoplasma gondii, HeLa, 24 h): 302000 nM | IC50 (HeLa; Homo sapiens, HeLa, 24 h): 240000 nM | selectivity ratio [2]: 0.8

N#CSCCOc1cccc2ccccc12
EC50 (Toxoplasma gondii [3]): 3130 nM | EC50 (Vero): > 50000 nM

CCCCCCCNCC(O)(P(=O)(O)O)P(=O)(O)O
IC50 [4]: > 1000 nM

C[C@H]1[C@H](C)CC[C@]2(C(=O)O)CC[C@]3(C)C(=CC[C@@H]4[C@@]5(C)C/C(=C/c6cn(-c7ccccc7Cl)nn6)C(=O)C(C)(C)[C@H]5CC[C@]43C)[C@H]12
IC50 (Toxoplasma gondii [1]; Toxoplasma gondii, HeLa, 24 h): 240000 nM | IC50 (HeLa; Homo sapiens, HeLa, 24 h): 468000 nM | selectivity ratio [2]: 1.95

C[C@H]1[C@H](C)CC[C@]2(C(=O)O)CC[C@]3(C)C(=CC[C@@H]4[C@@]5(C)C/C(=C/c6cn(-c7ccccc7I)nn6)C(=O)C(C)(C)[C@H]5CC[C@]43C)[C@H]12
IC50 (Toxoplasma gondii [1]; Toxoplasma gondii, HeLa, 24 h): 274000 nM | IC50 (HeLa; Homo sapiens, HeLa, 24 h): 230000 nM | selectivity ratio [2]: 0.84

O=C(NNC(=S)Nc1ccc(F)cc1)c1cccs1
IC50 (Toxoplasma gondii [3]): 33.2 µg/mL

C[C@H]1[C@H](C)CC[C@]2(C(=O)OCCn3cnnc3-c3ccccc3)CC[C@]3(C)C(=CC[C@@H]4[C@@]5(C)CC[C@H](O)C(C)(C)[C@H]5CC[C@]43C)[C@H]12
IC50 (Toxoplasma gondii [1]; Toxoplasma gondii, HeLa, 24 h): 88000 nM | IC50 (HeLa; Homo sapiens, HeLa, 24 h): 102000 nM | selectivity ratio [2]: 1.15

Oc1cc(Cl)ccc1Oc1ccc(NCc2ccccc2)cc1Cl
IC50 [5]: 13 nM | IC50 (Toxoplasma gondii [6]): 200 nM

CO[C@H]1/C=C/O[C@@]2(C)Oc3c(C)c(O)c4c(O)c(c(/C=N/N5CCN(C6CCCC6)CC5)c(O)c4c3C2=O)NC(=O)/C(C)=C\C=C\[C@H](C)[C@H](O)[C@@H](C)[C@@H](O)[C@@H](C)[C@H](OC(C)=O)[C@@H]1C [RIFAPENTINE]
survival at 10 mg/kg (Toxoplasma gondii [7]): 90%

O=P(O)(O)C(CNCCOc1cccc(Oc2ccccc2)c1)P(=O)(O)O
EC50 (Toxoplasma gondii [3]): 2400 nM | EC50 (Vero): > 50000 nM

COc1ccc(OC)c(Cc2cnc3nc(N)nc(N)c3c2C)c1 [PIRITREXIM]
IC50 [8]: 17 nM

CCCCCCCCNCC(F)(P(=O)(O)O)P(=O)(O)O
IC50 [4]: 35 nM

N#CSCCOc1ccc(Oc2ccccc2)cc1
EC50 (Toxoplasma gondii [3]): 4800 nM | EC50 (Vero): 82600 nM

CCCCCNCC(O)(P(=O)(O)O)P(=O)(O)O
IC50 [4]: 67 nM

Nc1ncnc2c1ncn2Cc1c(F)cccc1Cl [ARPRINOCID]
IC50 (Toxoplasma gondii [3]): 7000 nM | survival at 10 mg/kg (Toxoplasma gondii [7]): 100%

CCCCCCCCCNCC(P(=O)(O)O)P(=O)(O)O
IC50 [4]: 440 nM

N#CSCCOc1ccc(Oc2cccc3ccccc23)cc1
EC50 (Toxoplasma gondii [3]): 2870 nM

CCCCCCCCC[S+]([O-])CC(P(=O)(O)O)P(=O)(O)O (stereo unspecified)
IC50 [4]: 56 nM

Cc1occc1C(=O)NN=C(S)Nc1ccccc1
IC50 (Toxoplasma gondii [3]): 59 µg/mL

CCCCCCCCCCNCC(O)(P(=O)(O)O)P(=O)(O)O
IC50 [4]: 125 nM

C/C(=N\Nc1nc(-c2ccc(Cl)c(Cl)c2)cs1)c1ccc(Nc2nc(N)nc(N)n2)cc1
IC50 (Toxoplasma gondii [3]): 14.9 µg/mL

N[C@@H]1[C@H]2CN(c3nc4c(cc3F)c(=O)c(C(=O)O)cn4-c3ccc(F)cc3F)C[C@@H]12 [TROVAFLOXACIN]
survival at 10 mg/kg (Toxoplasma gondii [7]): 90%

CCCCCCCCCCNCC(P(=O)(O)O)P(=O)(O)O
IC50 [4]: 68 nM

N#CSCCOc1ccc(Oc2ccccn2)cc1
EC50 (Toxoplasma gondii [3]): > 10000 nM | EC50 (Vero): > 200000 nM

N#CSCCOc1ccc(Oc2ccc3ccccc3c2)cc1
EC50 (Toxoplasma gondii [3]): 2250 nM | EC50 (Vero): 105000 nM

CCCCCCNCC(O)(P(=O)(O)O)P(=O)(O)O
IC50 [4]: 51 nM

Oc1ccc(Oc2ccc(Cl)cc2O)c(Cl)c1
IC50 [5]: 3 nM | IC50 (Toxoplasma gondii [6]): 3100 nM

N#Cc1ccc(Oc2ccc(Cl)cc2O)c(Cl)c1
IC50 [5]: 24 nM

N#CSCCOc1ccc(Oc2cccc(Oc3ccccc3Cl)c2)cc1
EC50 (Toxoplasma gondii [3]): 2130 nM | EC50 (Vero): > 50000 nM

N#CSCCOc1ccc(Oc2cccc(Oc3cccc(F)c3)c2)cc1
EC50 (Toxoplasma gondii [3]): 1630 nM | EC50 (Vero): > 50000 nM

O=P(O)(O)C(CSCCOc1cccc(Oc2ccccc2)c1)P(=O)(O)O
EC50 (Toxoplasma gondii [3]): 670 nM | EC50 (Vero): > 100000 nM

CCCCCCCCCCCCCCNCC(P(=O)(O)O)P(=O)(O)O
IC50 [4]: 292 nM

N#CSCCOc1ccc(Oc2cccnc2)cc1
EC50 (Toxoplasma gondii [3]): 3710 nM | EC50 (Vero): 134000 nM

Oc1cc(Cl)ccc1Oc1ccc(Cn2ccnn2)cc1Cl
IC50 [5]: 26 nM | IC50 (Toxoplasma gondii [6]): 250 nM

N#CSCCOc1ccc(Oc2ccc(C(F)(F)F)cc2)cc1
EC50 (Toxoplasma gondii [3]): 1860 nM | EC50 (Vero): > 50000 nM

CC(=O)c1cc(Oc2ccccc2)ccc1OCCSC#N
EC50 (Vero): 75700 nM

S=c1[nH]nc(-c2cccs2)[nH]1
IC50 [9]: 194000 nM

CCCc1ccc(Oc2ccc([N+](=O)[O-])cc2Cl)c(O)c1
IC50 [5]: < 20 nM | IC50 (Toxoplasma gondii [6]): 6000 nM

CCCCCCC[S+](C)CC(P(=O)(O)O)P(=O)(O)O (stereo unspecified)
IC50 [4]: 13 nM

SPIRAMYCIN
IC50 (Toxoplasma gondii [1]; hela): 262000 nM | IC50 (HeLa; hela): 189000 nM | Ratio IC50 [2]: 0.72

Cc1nnsc1C(=O)NNC(=S)Nc1ccc(F)cc1F
IC50 (Toxoplasma gondii [3]): 92.3 µg/mL

CCCCCCCCCCCCNCC(P(=O)(O)O)P(=O)(O)O
IC50 [4]: 93 nM

Cc1nnsc1C(=O)NNC(=S)Nc1ccccc1Br
IC50 (Toxoplasma gondii [3]): 74.9 µg/mL

Cc1cc(-n2c(=O)[nH]c(=O)n(C)c2=O)ccc1Oc1ccc(S(=O)(=O)C(F)(F)F)cc1 [PONAZURIL]
IC50 (Toxoplasma gondii [3]): 6 nM | survival at 10 mg/kg (Toxoplasma gondii [7]): 100%

O=c1[nH]cnc2c([C@@H]3N[C@H](CO)[C@@H](O)[C@H]3O)c[nH]c12 [FORODESINE]
IC50 [9]: 0.37 nM

N#CSCCOc1ccc(Oc2cccc(C(F)(F)F)c2)cc1
EC50 (Toxoplasma gondii [3]): 1660 nM | EC50 (Vero): > 50000 nM

C[C@H]1[C@H](C)CC[C@]2(C(=O)OCCn3cnnc3-c3ccc(F)cc3)CC[C@]3(C)C(=CC[C@@H]4[C@@]5(C)CC[C@H](O)C(C)(C)[C@H]5CC[C@]43C)[C@H]12
IC50 (Toxoplasma gondii [1]; Toxoplasma gondii, HeLa, 24 h): 51400 nM | IC50 (HeLa; Homo sapiens, HeLa, 24 h): 88200 nM | selectivity ratio [2]: 1.44

N#Cc1ccccc1CNc1ccc(Oc2ccc(Cl)cc2O)c(Cl)c1
IC50 [5]: 16 nM | IC50 (Toxoplasma gondii [6]): > 10000 nM

CCCCCCC[S+]([O-])CC(P(=O)(O)O)P(=O)(O)O (stereo unspecified)
IC50 [4]: 9 nM

CCCCCCCCCNCC(F)(P(=O)(O)O)P(=O)(O)O
IC50 [4]: 60 nM

N#CSCCOc1ccc(Oc2ccncc2)cc1
EC50 (Toxoplasma gondii [3]): 7860 nM | EC50 (Vero): > 200000 nM

C[C@@H](Oc1cc(-c2cnn(C3CCNCC3)c2)cnc1N)c1c(Cl)ccc(F)c1Cl [CRIZOTINIB]
IC50 (Toxoplasma gondii [3]): 4000 nM

CCCCc1cn(Cc2ccc(Oc3ccc(Cl)cc3O)c(Cl)c2)nn1
IC50 [5]: 43 nM | IC50 (Toxoplasma gondii [6]): 250 nM

CCCCCCCCCC[S+]([O-])CC(P(=O)(O)O)P(=O)(O)O (stereo unspecified)
IC50 [4]: > 10000 nM

O=[N+]([O-])c1ccc(Oc2ccc(Cl)cc2O)c(Cl)c1
IC50 [5]: < 20 nM | IC50 (Toxoplasma gondii [6]): 4000 nM

Oc1cc(Cl)ccc1Oc1ccc(CNc2ccccc2)cc1Cl
IC50 [5]: 31 nM | IC50 (Toxoplasma gondii [6]): > 10000 nM

CCCc1ccc(Oc2ccc(N)cc2Cl)c(O)c1
IC50 [5]: < 20 nM | IC50 (Toxoplasma gondii [6]): 6000 nM

Cc1cc(-n2c(=O)[nH]c(=O)n(C)c2=O)ccc1Oc1ccc(SC(F)(F)F)cc1 [TOLTRAZURIL]
IC50 (Toxoplasma gondii [3]): 940 nM | survival at 10 mg/kg (Toxoplasma gondii [7]): 100%

CCCCCCCCNCC(O)(P(=O)(O)O)P(=O)(O)O
IC50 [4]: 39 nM

COc1cc(-n2cc(/C=C3/C[C@@]4(C)[C@H](CC[C@]5(C)[C@@H]4CC=C4[C@@H]6[C@@H](C)[C@H](C)CC[C@]6(C(=O)O)CC[C@]45C)C(C)(C)C3=O)nn2)cc(OC)c1OC
IC50 (Toxoplasma gondii [1]; Toxoplasma gondii, HeLa, 24 h): 301000 nM | IC50 (HeLa; Homo sapiens, HeLa, 24 h): 354000 nM | selectivity ratio [2]: 1.17

CCCCCCCC[S+]([O-])CC(P(=O)(O)O)P(=O)(O)O (stereo unspecified)
IC50 [4]: 16 nM

N#CSCCOc1ccc2ccccc2c1
EC50 (Toxoplasma gondii [3]): 3620 nM | EC50 (Vero): > 100000 nM

N#CC(c1ccc(Cl)cc1)c1c(Cl)cc(-n2ncc(=O)[nH]c2=O)cc1Cl (stereo unspecified) [DICLAZURIL]
IC50 (Toxoplasma gondii [3]): 6 nM | survival at 10 mg/kg (Toxoplasma gondii [7]): 100%

O=C(Nc1ccc([N+](=O)[O-])cc1Cl)c1cc(Cl)ccc1O [NICLOSAMIDE]
MIC50 (Toxoplasma gondii [3]): 0.2 µM (≈ 0.0654 µg/mL)

CC(=O)O[C@H]1C[C@@]2(C)[C@@H](C[C@@H](O)[C@H]3[C@@]4(C)CC[C@@H](O)[C@@H](C)[C@@H]4CC[C@@]32C)/C1=C(\CCC=C(C)C)C(=O)O [FUSIDIC ACID]
IC50 (Toxoplasma gondii [3]): 7000 nM | survival at 10 mg/kg (Toxoplasma gondii [7]): 90%

CCCc1ccc(Oc2ccc(C#N)cc2Cl)c(O)c1
IC50 [5]: < 20 nM | IC50 (Toxoplasma gondii [6]): 6000 nM

CCc1nc(N)nc(N)c1-c1ccc(Cl)cc1 [PYRIMETHAMINE]
IC50 (Toxoplasma gondii [3]): 453 nM | IC50 (Toxoplasma gondii [10]): 3620 nM

CCCCCCCCCCCNCC(P(=O)(O)O)P(=O)(O)O
IC50 [4]: 868 nM
